≈ marks a conversion by molar mass, not a printed value.
Columns and labels:
[1] = test system: human umbilical vein endothelial cells (HUVECs); conditions: cited from earlier work
[2] = Cell membrane permeability assay on motile sperm cells (PI staining); assay type: cell-based, boar; conditions: boar (pig), motile boar spermatozoa (commercial extended boar semen); at 800 ng mL^−1 to 1600 ng mL^−1, 37 °C, 2 h
Description: To test the effect of OPA exposure on sperm cells in physiological conditions (swimming at 37 °C) the plasma membrane disruption on motile sperm cells was measured with the viability PI stain, where the loss of plasma membrane integrity was detected as appearance of red color stained nuclei in the damaged cells. In this assay, sperm cells were exposed to OPA at 37 °C and motility of the exposed sperm cells was induced and maintained for 2 h.
Cell membrane permeability assay on motile sperm cells was inspected by staining with PI (Molecular Probes, Eugene, OR, USA) in sperm cells induced to swim by shaking at 37 °C. One hundred and fifty μL aliquots of commercial extended boar semen with a density of 27 × 10^6 sperms mL^−1 were pipetted into microtiter plate wells and serially diluted methanolic solution of OPA were added in the concentration range of 200 ng mL^−1 to 4 μg mL^−1 including 6 levels and an additional methanol blank, and pre-incubated for 2 h on orbital shaker (Innova 5000 new Brunswick Scientific, Enfield, CT, USA) (160 rpm) at 37 °C. Four parallel measurements were done for each dilution. One ml PI solution (1 mg mL^−1 in Dulbeco’s phosphate buffered saline) was mixed with 3 mL of […] Dulbeco’s phosphate buffered saline. One hundred and fifty μL of this stain mixture was added to 150 μL of exposed boar semen. This suspension was incubated for 15 min at 37 °C in dark and measured using a microplate reader (Fluoroskan Ascent, Thermo Scientific, Vantaa, Finland) at excitation and emission wavelengths of 544 nm and 600 nm, respectively. For observing plasma membrane damage by PI staining frozen-thawed semen was used as a positive control (for mortality of 100%) representing the maximal fluorescence emitted by the cells permeable to PI and Dulbeco’s phosphate buffered saline was applied as background control (blank). Loss of viability in the sample was calculated as described in Alm et al.. The frozen sample represented 100% loss of viability. The assay was calibrated with triclosan (Sigma Chemical Co., St. Louis, MO, USA), in 5 parallel tests, the EC50 was 2 μg mL^−1 (SD ± 0.6). Cell membrane permeability assay on static sperm cells at room temperature was carried out by viability staining with PI and calcein-AM (Molecular Probes, Eugene, OR, USA) according to Hoornstra et al. in same concentration range and levels described above.

boar spermatozoa [3] = test: Dissipation of mitochondrial membrane potential (ΔΨm), JC-1 staining; assay type: cell-based
Description: The membrane-permeable 5,5',6,6'-tetrachloro-1,1',3,3'-tetraethylbenzimidazolylcarbocyanine iodide (JC-1) dye is widely used in apoptosis studies to monitor mitochondrial health. […] Therefore, the loss of ΔΨm was seen as decrease in orange fluorescence. In our cases, the staining for […] with JC-1 at 37 °C was enough to get the energized mitochondria stained orange and the plasma membrane green. This short staining was empirically optimized for getting the most reproducible differences between vehicle and toxin exposed sperm cells in Hoornstra et al.. After 2 min incubation, OPA completely depolarized the mitochondrial membrane of the sperm cells at the concentration of 1.25 μg mL^−1 and the exposed cells have already lost approximately 50% of their bright fluorescing mitochondria at the concentration of 500 ng mL^−1 (Figure 3, Table 1).
The dissipation of the ΔΨm on static cells at room temperature was visualized by 5,5',6,6'-tetrachloro-1,1',3,3'-tetraethylbenzimidazolylcarbocyanine iodide (JC-1) (Molecular Probes, Eugene, OR, USA) staining according to Hoornstra et al. with minor modifications as follows: 200 μL of the boar semen exposed with the final OPA concentration of 2.5 μg mL^−1, 1.25 μg mL^−1, 0.5 μg mL^−1 and 0.125 μg mL^−1 was incubated at 37 °C for 2 min, stained with 0.3 μL of JC-1 (1 mg mL^−1 in DMSO) followed by another 2 min at 37 °C and viewed using an epifluorescence microscope (Eclipse E600, Nikon, Tokyo, Japan). All assays (PI + CAM and JC-1 staining) were performed in triplicate and for each sample five microscopic fields containing ca. 20 cells were inspected.

boar spermatozoa [4] = test: Sperm motility inhibition assay (progressive and rapid motility); assay type: cell-based
Description: Furthermore, their physiological characters including their motility are influenced mainly by membrane potentials and ion fluxes. Thus, the change of sperm motility is able to sensitively indicate the substances causing mitochondrial membrane depolarization even at sublethal doses, which is undetectable with other cell lines. Motility of the spermatozoa was judged after exposure of 30 min and 24 h at room temperature with minor modification of a previously described method.
The sperm motility inhibition assay was done as reported by Andersson et al.. Commercial boar semen obtained from Figen Oy Finland extended in MR-A (Kubus, S.A., Madrid, Spain) containing 27 × 10^6 spermatozoa·mL^−1 was used. The purified OPA was diluted by serial dilutions in methanol obtaining two ranges of concentrations with 4-4 levels from 2500 μg mL^−1 to 250.0 μg mL^−1 and from 50 μg mL^−1 to 5.0 μg mL^−1, for short and long time exposures, respectively. Twenty μL of each dilution was administered to 2 mL of MR-A-diluted boar semen resulting approximately 100 times dilution of the original stock solutions; 20 μL of methanol was added to spermatozoa in the same way as a blank assay. The samples were incubated for 30 min and 24 h at room temperature for short and long term exposure assays, respectively. After exposure, motility was induced in the sperm cells by incubation in 37 °C for 5 min and shaking to provide the sperm cells with oxygen. […]
The above described subjective motility assay was calibrated with an automatic Hamilton Thorne sperm motility analyzer (HTM-S, ver. 7.2; Hamilton-Thorn Research, Danvers, MA, USA). […] Thus the protocol for assessing sperm tail beating as a measure of motility inhibition gave 99% similarity to measurements of the proportion of rapidly motile spermatozoa done with Hamilton Thorne sperm analyzer (HTM-S, ver. 7.2; Hamilton-Thorn Research, Danvers, MA, USA) Toxicity was expressed as the endpoint concentration of the OPA solution, where the progressive and rapid motility of the sperm cells were <50% of the vehicle exposed sperm cells. […]

CC(C)=C[C@H]1C[C@H](C)[C@]2(CC[C@]3(C)C[C@H]4[C@H](C(=O)C[C@@]4(C)O)/C(C=O)=C\C[C@H]32)O1 [OPA, ophiobolin A]
IC50, reduction in the amount of viable cells [1]: 32 µg/mL
viability at 2 h [2]: 38 to 73%
Effect on JC-1 mitochondrial fluorescence (boar spermatozoa [3]; 125 ng mL^−1 OPA, JC-1 staining): minimal difference compared to the untreated control
Loss of bright fluorescing mitochondria (boar spermatozoa [3]; 500 ng mL^−1 OPA, JC-1 staining): approximately 50%
Concentration completely depolarizing the mitochondrial membrane of the sperm cells (boar spermatozoa [3]; JC-1 staining, 2 min incubation at 37 °C): 1.25 µg/mL
EC50 (boar spermatozoa [3]; Spermatozoa, read-out: Toxic endpoint EC50, Dissipation of ΔΨm): 0.5 µg/mL (≈ 1.25 µM)
EC50 (boar spermatozoa [4]; 0.5 h, boar spermatozoa, 30 min exposure at room temperature, read-out: Toxic endpoint EC50, Motility inhibition (30 min)): ≤ 2.5 µg/mL
EC50 (boar spermatozoa [4]; 24 h, read-out: Toxic endpoint EC50, Motility inhibition (24 h), boar spermatozoa, 24 h exposure at room temperature): 0.25 µg/mL (≈ 0.624 µM)
